The values that follow come from US20240300886A1, “ARYLCYCLOHEXYLAMINE DERIVATIVES AND THEIR USE IN THE TREATMENT OF PSYCHIATRIC DISORDERS” (GILGAMESH PHARMACEUTICALS, INC., priority 2021, published 2024).

For data set [1], the target named is serotonin transporter (SERT) (Homo sapiens (Human), UniProt P31645). Put plainly: SERT competition radioligand binding ([3H]imipramine). The conditions noted are these: Human recombinant (CHO cells), 2.0 nM [3H]imipramine. The method, then:
Disclosed compounds were tested for their binding affinity at the serotonin transporter (SERT) using a competition radioligand binding assay (Eurofins Cerep). Assay conditions are described in Table 16 below.

A short description of data set [2]: Stability in liver microsomes (Example 21), CD-1 mouse. The conditions noted are these: male, pH 7.4, CD-1 Mouse liver microsomes, 0.5 mg/mL protein. Format: in vitro ADME. The procedure: (§1) General Procedure. Briefly, test compounds (final concentration 1 μM) were incubated in duplicate with liver microsomes from male animals of the indicated species (final protein concentration 0.5 mg/mL) in 50 mM sodium phosphate buffer (pH 7.4) with or without NADPH (1 mM). Total incubation volume was 500 μL. At 0, 5, 15, 30, and 60 min, aliquots of 50 μL were withdrawn, quenched with acetonitrile (150 μL), and analyzed for parent compound remaining using a fit-for-purpose LC-MS/MS method. Intrinsic clearance and half-life were calculated. Clearance values below zero were rounded to zero.
(Microsomes from liver hold many membrane-bound enzymes, among them those of drug oxidation.)

Data set [3] in a line: Stability in liver microsomes (Example 21), SD rat. The format is in vitro ADME. The following applies: male, pH 7.4, 0.5 mg/mL protein. The procedure: as §1
Data set [4] is described as follows: Stability in liver microsomes (Example 21), beagle dog. The conditions noted are these: male, pH 7.4, 0.5 mg/mL protein. Format: in vitro ADME. The method, then: as §1
Data set [5] is described as follows: Stability in liver microsomes (Example 21), Gottingen minipig. Format: in vitro ADME. The following applies: male, pH 7.4, 0.5 mg/mL protein. The procedure: as §1
The nature of data set [6]: Stability in liver microsomes (Example 21), cynomolgus monkey. Format: in vitro ADME. The conditions noted are these: male, pH 7.4, 0.5 mg/mL protein. The procedure:
as §1

Data set [7] has as its target recombinant human NMDA receptor (GRIN1/GRIN2B) (Homo sapiens (Human), UniProt Q05586+Q13224). Put plainly: Unblocking kinetics at the NMDA receptor in Xenopus laevis oocytes (two-electrode voltage clamp). Format: cell-based. The conditions noted are these: compounds applied at 3×IC50, -70 mV, n ≥ 5. The method, then: Compounds 2R, 2S, and 2-(2-fluorophenyl)-2-(methylamino)cyclohexan-1-one 2-F-DCK were tested for unblocking kinetics at the NMDA receptor in Xenopus laevis oocytes expressing recombinant human NMDA receptor (GRIN1/GRIN2B) (Table 22).
Experimental Procedure. Oocytes were harvested from adult Xenopus laevis and incubated in 96 well plates for two to four days prior to recordings. Plasmids containing cDNA encoding for human NMDA receptor subunits GRIN1 and GRIN2B were transcribed using the mMessage mMachine T7 transcription kit (Ambion, USA). The Roboocyte automated injection system was used for injection of cRNA coding for hNMDA receptor subunits at a concentration of 100 ng/μL per subunit. Oocytes were clamped to a holding potential of −70 mV and induced currents after compound application were sampled at 200 Hz at room temperature. Agonist induced currents were recorded with a two-electrode voltage clamp. To determine the unblocking kinetics, glutamate and glycine (3 and 10 μM, respectively) were applied to the oocytes and the current recorded for 90 s. Then, compounds were applied at 3×IC50 for 120 s and the currents recorded.
In general terms: In two-electrode clamp one electrode senses voltage and the other passes current.

Data set [8] is described as follows: Comparative oral pharmacokinetics of 2R, 2S and 2-F-DCK in mice. Format: in vivo, C57BL/6 mice. The following applies: 10 mg/kg po; for half-life: read-out: t1/2 (po). The procedure: Animals. Male C57BL/6 mice were used in these studies. Aminals were randomly assigned to treatment groups and were fasted for 4 h before dosing.
Drugs. Test compounds were dissolved in a vehicle consisting of normal saline, They were then administered orally (po) at a dose of 10 mg/kg (calculated based on freebase) and at a volume of 10 mL/kg body weight.
Sample Collection and Bioanalysis. Blood samples (approximately 60 μL) were collected under light isoflurane anesthesia (Surgivet®) from the retro orbital plexus at 0.08, 0.25, 0.5, 1, 2, 4, 8, and 24 h (4 animals per time point). Immediately after blood collection, plasma was harvested by centrifugation at 4,000 rpm for 10 min at 4° C. and samples were stored at −70±10° C. until bioanalysis. Following blood collection, animals were immediately sacrificed, the abdominal vena-cava was cut open, and the whole body was perfused from the heart using 10 mL of normal saline, and brain samples were collected from all animals. After isolation, brain samples were rinsed three times in ice-cold normal saline (for 5-10 seconds/rinse using ˜5-10 mL normal saline in disposable petri dish for each rinse) and dried on blotting paper. Brain samples were homogenized using ice-cold phosphate-buffered saline (pH 7.4). Total homogenate volume was three times the tissue weight. All homogenates were stored at −70±10° C. until bioanalysis. For bioanalysis, 25 μL aliquots of plasma/brain study samples or spiked plasma/brain calibration standards were added to individual pre-labeled micro-centrifuge tubes followed by 100 μL of an internal standard solution (glipizide, 500 ng/mL in acetonitrile) except for blanks, where 100 μL of acetonitrile was added. Samples were vortexed for 5 minutes and then centrifuged for 10 minutes at 4,000 rpm at 4° C. Following centrifugation, 100 μL of each clear supernatant was transferred to a 96 well plate and analyzed with a fit-for-purpose LC-MS/MS method, with authentic samples of each analyte used for calibration and identification.
Data Analysis. Pharmacokinetic parameters were estimated using the non-compartmental analysis tool of Phoenix® WinNonlin software (Ver 8.0).

The structures appear in SMILES notation. Read-outs that look alike come from different tables or passages of the source.

Sequence of recombinant human NMDA receptor (GRIN1/GRIN2B) (Q13224 whole entry, looked up, other chains not shown): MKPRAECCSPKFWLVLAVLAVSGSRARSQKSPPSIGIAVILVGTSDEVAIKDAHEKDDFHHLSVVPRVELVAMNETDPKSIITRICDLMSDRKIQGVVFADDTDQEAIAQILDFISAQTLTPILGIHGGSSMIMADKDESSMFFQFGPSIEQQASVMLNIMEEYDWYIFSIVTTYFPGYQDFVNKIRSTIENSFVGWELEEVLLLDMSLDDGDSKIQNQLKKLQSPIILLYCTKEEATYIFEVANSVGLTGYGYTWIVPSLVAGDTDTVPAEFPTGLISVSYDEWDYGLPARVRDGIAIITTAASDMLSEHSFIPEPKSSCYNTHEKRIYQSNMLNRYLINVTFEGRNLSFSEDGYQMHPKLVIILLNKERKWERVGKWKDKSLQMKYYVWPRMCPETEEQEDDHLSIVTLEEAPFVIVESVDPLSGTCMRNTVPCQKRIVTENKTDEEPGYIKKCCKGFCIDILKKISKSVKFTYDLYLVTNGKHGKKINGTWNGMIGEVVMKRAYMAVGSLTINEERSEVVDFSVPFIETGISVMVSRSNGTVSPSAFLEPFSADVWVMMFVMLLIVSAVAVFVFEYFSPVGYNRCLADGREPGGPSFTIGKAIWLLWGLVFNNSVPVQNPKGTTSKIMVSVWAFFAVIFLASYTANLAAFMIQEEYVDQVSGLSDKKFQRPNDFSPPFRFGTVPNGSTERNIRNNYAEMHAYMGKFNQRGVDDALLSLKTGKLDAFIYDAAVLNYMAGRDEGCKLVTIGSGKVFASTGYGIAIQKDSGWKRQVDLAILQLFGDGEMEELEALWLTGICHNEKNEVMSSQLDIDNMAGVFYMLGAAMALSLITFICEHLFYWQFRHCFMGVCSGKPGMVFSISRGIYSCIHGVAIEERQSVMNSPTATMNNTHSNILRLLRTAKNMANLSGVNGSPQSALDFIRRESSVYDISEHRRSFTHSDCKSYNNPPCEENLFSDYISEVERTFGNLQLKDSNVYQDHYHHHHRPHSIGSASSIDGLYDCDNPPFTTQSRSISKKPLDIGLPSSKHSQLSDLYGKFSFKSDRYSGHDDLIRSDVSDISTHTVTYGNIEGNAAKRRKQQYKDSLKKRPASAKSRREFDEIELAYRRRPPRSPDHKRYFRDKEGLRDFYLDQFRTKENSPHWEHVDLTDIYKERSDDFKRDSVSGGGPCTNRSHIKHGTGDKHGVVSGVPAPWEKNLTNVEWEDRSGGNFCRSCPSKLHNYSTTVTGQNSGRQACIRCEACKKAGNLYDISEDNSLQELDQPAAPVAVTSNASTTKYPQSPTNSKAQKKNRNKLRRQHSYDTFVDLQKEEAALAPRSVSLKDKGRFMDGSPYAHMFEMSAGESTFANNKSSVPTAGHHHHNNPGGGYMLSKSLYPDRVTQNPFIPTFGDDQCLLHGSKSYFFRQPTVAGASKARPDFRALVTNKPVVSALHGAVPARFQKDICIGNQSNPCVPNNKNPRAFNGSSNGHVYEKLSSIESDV

Consider `CNC1(c2ccccc2F)CCCCC1=O` (stereo not shown) [Compound 2-F-DCK, 2-(2-fluorophenyl)-2-(methylamino)cyclohexan-1-one, reference compound], for which, in data set [1], the inhibition constant Ki came to 40 µM. The microsomal CLint at 1 μM in data set [2] is 10.9 µL/min/mg; in data set [3], 111 µL/min/mg; in data set [4], 30 µL/min/mg; in data set [5] it was 56.2 µL/min/mg; in data set [6], 212 µL/min/mg. Besides, the “Unblocking T1/2 ± SEM” value in data set [7] turned out to be 86.3 ± 12.6 s. In addition, the Cmax in data set [8] (male, C57BL/6, mouse brain) was found to be 1670 ng/g; in data set [8] (male, C57BL/6, mouse plasma), 1960 ng/mL. Besides, the half-life in data set [8] (male, C57BL/6, mouse brain) came to 41 min; in data set [8] (male, C57BL/6, mouse plasma) it was 69 min. The AUC(0-t) in data set [8] (male, C57BL/6, mouse plasma, read-out: AUC0-last (po) (converted)) is 1150 ng·h/mL. The “AUC0-last (po)” value in data set [8] (mouse brain) stood at 59119 ng·min/g.

Usually Ki stands for the dissociation constant of the complex between target and ligand, obtained from inhibition or displacement. A word on the microsomal CLint: it is the capacity of the preparation to metabolise the compound, expressed as a volume cleared per time. Broadly, the Cmax is the peak of the concentration-time curve.
